# Where two headings read alike, the source gives them in different places.
# Tests used:
# Teschovirus = assay: organism not typed; type: cell-based, porcine teschovirus; details: read-out: Inhibition [ED50 (μM)] against various viruses: Picornavirus, Teschovirus
# HAV [1] = assay: Cell-based screening, HAV (Example 2); parameters: species or system hepatitis A virus; details: Picornaviridae, read-out: Inhibition [ED50 (μM)] against various viruses: Picornavirus, HAV
# Procedure: (§1) 3. Cell-based screening of inhibitor. The effects of each inhibitor on the viral replication were examined. The list of viruses and corresponding cell lines are listed above in Table 2. Briefly, confluent cells were inoculated with virus at a MOI of 5 or 0.05 for 1 hr, and medium was replaced with medium containing mock-medium or each compound (up to 100 μM). The virus infected cells were further incubated for up to 96 hrs, and the replication of virus was measured by TCID50 assay with the 10-fold dilution of each sample used for virus titration (Reed and Muench, 1938). In some viruses, the virus protein and genome expression levels were detected by Western blot analysis and real-time qRT-PCR, respectively, as described below. The IC50s of the compounds were calculated.
# [2] = biological target: Norwalk virus 3CL protease (Norovirus, UniProt Q83883); assay: Recombinant NV protease fluorogenic substrate inhibition assay (Example 1); type: biochemical; details: 30 min pre-incubation, 30° C., pH 8.0
# Chain of Norwalk virus 3CL protease (Q83883 1101-1281): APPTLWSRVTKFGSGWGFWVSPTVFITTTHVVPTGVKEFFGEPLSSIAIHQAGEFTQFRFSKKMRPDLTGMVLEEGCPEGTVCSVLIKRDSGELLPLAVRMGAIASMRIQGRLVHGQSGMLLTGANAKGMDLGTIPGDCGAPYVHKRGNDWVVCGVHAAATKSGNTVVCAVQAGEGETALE
# Procedure: After a 30 minute incubation period, 5 μL of 12 μM Edans-[…]-Dabcyl (SEQ ID NO:1) substrate in DMSO was then added and the increase in fluorescence was monitored for 30 minutes at an excitation and emission wavelength of 360 and 460 nm, respectively. Using a HORIBA FluoroMax 4 spectrofluorometer. Hydrolysis curves were linear. The final enzyme and substrate concentrations were 2.5 μM and 300 nM, respectively. […] Furthermore, the nature of the cap was also important (compare, for example, inhibitors A and D).
# FIPV = assay: Cell-based screening, FIPV in CRFK cells (Example 2); parameters: species or system feline infectious peritonitis virus; details: Alphacoronavirus 1, CRFK, read-out: Inhibition [ED50 (μM)] against various viruses: Coronavirus, FIPV
# Procedure: as §1
# EV71 = assay: Cell-based screening, EV71 in Vero cells (Example 2); parameters: species or system enterovirus 71; details: Enterovirus A, EV71, Vero, read-out: Inhibition [ED50 (μM)] against various viruses: Picornavirus, EV71
# Procedure: as §1
# FCV [3] = assay: Cell-based screening, FCV in CRFK cells (Example 2); details: Feline calicivirus, CRFK, read-out: Inhibition [ED50 (μM)] against various viruses: Calicivirus, FCV
# Procedure: as §1
# [4] = PK and oral bioavailability studies in rats; details: 20 mg/Kg (body weight), IV or PO
# MNV-1 [5] = assay: Cell culture system, MNV-1 replication in RAW267.4 cells (Example 3); type: cell-based, murine norovirus; details: RAW267.4 cells
# MNV-1 [6] = assay: Cell-based screening, MNV-1 in RAW267.4 cells (Example 2); parameters: species or system murine norovirus; details: Norwalk virus, RAW267.4, read-out: Inhibition [ED50 (μM)] against various viruses: Calicivirus, MNV-1
# Procedure: as §1
# [7] = biological target: recombinant 3C or 3CL of MD145 (Norovirus Hu/GII.4/MD145-12/1987/US (Maryland virus), UniProt Q8V0P3); assay: FRET protease assay, MD145 3CL (Example 2); type: biochemical, norovirus strain MD145
# Chain of recombinant 3C or 3CL of MD145 (Q8V0P3 entry or part of it): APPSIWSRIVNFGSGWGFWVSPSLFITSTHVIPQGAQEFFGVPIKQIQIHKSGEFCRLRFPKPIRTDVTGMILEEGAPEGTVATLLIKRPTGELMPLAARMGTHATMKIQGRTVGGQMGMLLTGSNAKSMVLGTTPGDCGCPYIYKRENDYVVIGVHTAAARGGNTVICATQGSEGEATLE
# FCV [8] = assay: Cell culture system, FCV replication in CRFK cells (Example 3); type: cell-based, feline calicivirus; details: CRFK cells
# [9] = test system: 3CLpro of NV, MD145, MNV-1; type: biochemical, norovirus; details: optimized FRET-based protease assay
# TGEV = assay: Cell-based screening, TGEV in ST cells (Example 2); parameters: species or system transmissible gastroenteritis virus; details: Alphacoronavirus 1, read-out: Inhibition [ED50 (μM)] against various viruses: Coronavirus, TGEV
# Procedure: as §1
# HAV 3Cpro = HAV 3Cpro (Human hepatitis A virus genotype IB, UniProt P08617); assay: Optimized FRET protease assay, HAV 3Cpro (Example 3); type: biochemical
# Chain of HAV 3Cpro (P08617 1520-1738): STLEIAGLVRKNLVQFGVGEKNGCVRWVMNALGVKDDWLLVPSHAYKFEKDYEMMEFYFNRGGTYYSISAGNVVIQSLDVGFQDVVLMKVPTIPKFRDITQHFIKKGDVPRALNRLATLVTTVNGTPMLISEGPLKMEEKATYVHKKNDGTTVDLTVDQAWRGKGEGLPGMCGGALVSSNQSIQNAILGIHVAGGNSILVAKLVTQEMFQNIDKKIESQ
# Procedure: Fluorogenic substrates with Edans and Dabcyl as a donor and quencher pair were purchased from Bachem (coronavirus substrate) or synthesized by GenScript. The viral proteases and the corresponding fluorogenic substrates are listed in Table 5, along with their sources.
# Stock solutions (10 mM) of the substrates and the compounds were prepared in dimethyl sulfoxide (DMSO) and diluted in assay buffer. The assay buffer comprised 20 mM HEPES buffer containing NaCl (0 mM for HAV 3Cpro and 200 mM for all other proteases), 0.4 mM EDTA, Glycerol (60% for NV and MD145 3CLpro and 30% for TGEV and 229E 3CLpro), and 6 mM (NV and MD145 3CLpro and HAV 3Cpro)_or 4 mM (all other proteases) dithiothreitol (DTT) at pH 6 (coronavirus 3CLpro) or 8 (all other proteases). Each protease was mixed with serial dilutions of each compound or with DMSO in 25 μl of assay buffer and incubated at 37° C. for 30 min, followed by the addition of 25 μl of assay buffer containing substrate. Fluorescence readings were obtained using an excitation wavelength of 360 nm and an emission wavelength of 460 nm on a fluorescence microplate reader (FLx800; Biotek, Winooski, Vt.) at 1 h following the addition of substrate. The relative fluorescence units (RFU) were determined by subtracting background values (substrate-containing well without protease) from the raw fluorescence values. […]
# [10] = test system: Norwalk virus (HG23 cells); assay: microbe, parasite or virus in culture; type: cell-based; details: HG23, read-out: Inhibition [ED50 (μM)] against various viruses: Calicivirus, HG23 cells
# MHV = assay: Cell-based screening, MHV in CCL-9.1 cells (Example 2); parameters: species or system mouse hepatitis virus; details: Murine coronavirus, read-out: Inhibition [ED50 (μM)] against various viruses: Coronavirus, MHV
# [11] = biological target: HAV 3Cpro (full-length, 6 His, recombinant) (Human hepatitis A virus genotype IB, UniProt P08617); assay: biochemical; parameters: species or system human hepatitis A virus (strain HM175)
# Chain of HAV 3Cpro (full-length, 6 His, recombinant) (P08617 1520-1738): as above
# [12] = biological target: T1, MD145 3CLpro (codon-optimized, full-length, N-terminal 6 His, recombinant) (Lordsdale virus, UniProt P54634); assay: biochemical; parameters: species or system norovirus strain MD145 (human norovirus GII)
# T1 sequence (P54634 1009-1189): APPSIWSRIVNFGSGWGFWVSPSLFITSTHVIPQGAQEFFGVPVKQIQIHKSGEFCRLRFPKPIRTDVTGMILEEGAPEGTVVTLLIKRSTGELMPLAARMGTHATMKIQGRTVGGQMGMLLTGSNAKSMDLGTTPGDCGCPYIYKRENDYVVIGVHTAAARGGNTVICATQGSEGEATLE
# 229E = assay: Cell-based screening, 229E in MRC-5 cells (Example 2); details: Human coronavirus 229E, MRC5, read-out: Inhibition [ED50 (μM)] against various viruses: Coronavirus, 229E
# Procedure: as §1
# [13] = biological target: SARS-CoV 3CLpro (codon-optimized, N-terminal 6 His, recombinant) (Severe acute respiratory syndrome coronavirus, UniProt P0C6X7); assay: biochemical
# [14] = test system: human norovirus (GII.12 HS206); assay: Gnotobiotic pig model of human norovirus infection, repeat at 100 mg/kg/day; type: in vivo; details: Gn pigs
# Source text: After antiviral treatment or HuNoV inoculation, clinical signs and fecal virus shedding were monitored daily through day 14.
# MNV-1 [15] = details: MNV-1 passaged in the presence of the drug
# human norovirus (HuNoV) = assay: Gnotobiotic pig model of human norovirus infection, first trial; type: in vivo, gnotobiotic (Gn) pigs
# Source text: We investigated if fecal norovirus shedding in human norovirus-inoculated gnotobiotic (Gn) pigs is altered the by treatment with GC376. […] On day 2 after antiviral treatment, they were inoculated orally with 1.0×10^10 genome equivalent (GE) of Human norovirus (GII.12 HS206). Rectal swabs were collected daily from each animal throughout the experiment, and fecal virus shedding and clinical signs were monitored daily until virus was not detectable by real-time qRT-PCR. The Table below summarizes the results.
# TGEV 3CL protease = TGEV 3CL protease (Porcine transmissible gastroenteritis coronavirus, UniProt P0C6Y5); assay: FRET-based protease assay, TGEV 3CL protease (Example 5); type: biochemical, TGEV Miller strain; details: compound at 50 μM final concentration
# Chain of TGEV 3CL protease (P0C6Y5 2879-3180): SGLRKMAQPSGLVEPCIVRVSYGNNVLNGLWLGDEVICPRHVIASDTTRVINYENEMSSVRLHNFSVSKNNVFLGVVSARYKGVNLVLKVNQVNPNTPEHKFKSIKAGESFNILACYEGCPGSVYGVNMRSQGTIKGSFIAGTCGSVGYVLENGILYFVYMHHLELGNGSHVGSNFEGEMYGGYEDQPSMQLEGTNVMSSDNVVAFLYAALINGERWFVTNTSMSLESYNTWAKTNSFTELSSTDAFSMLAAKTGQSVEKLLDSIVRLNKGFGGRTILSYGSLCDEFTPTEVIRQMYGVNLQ
# Source text: The 3CL proteases are highly conserved among all coronaviruses, and feline coronavirus 3CL protease is closely related TGEV 3CL protease. Therefore we cloned and expressed the TGEV 3CL protease for the FRET assay. The cDNA encoding the full length of 3CL protease of TGEV Miller strain was amplified with RT-PCR as previously described. The primers contained the nucleotide sequence of the 3CL protease for cloning as well as the nucleotides for 6 Histidine in the forward primer. The amplified product was subcloned to pET-28a(+) vector (GenScript, Piscataway, N.J.). The expression and purification of the 3CL protease was performed with a standard method described previously by our lab (Chang et al., 2012b; Takahashi et al., 2012; Tiew et al., 2011).
# Our protease inhibitor compounds and commercial cathepsin inhibitors CA074-Me and E64d were prepared in DMSO as stock solutions (10 mM), and further diluted in assay buffer consisting of 20 mM HEPES, 0.4 mM EDTA, 30% glycerol, 120 mM NaCl, and 4 mM DTT at pH 6. […] TGEV 3CL protease at a final concentration of 0.1˜0.2 μM and the substrate (Dabcyl-[…]-Edans; SEQ ID NO:2) at 10 μM were used for the studies. The substrate was purchased from Bachem Americas, Inc (Torrance, Calif.). Compounds at various concentrations (0˜50 μM) were pre-incubated with TGEV 3CL protease in 25 μl for 30 min at 37° C., and the same volume of substrate was added to a 96-well black plate. The mixtures were then incubated at 37° C. for 60 min, and fluorescence readings were obtained on a microplate reader at 360 nm excitation and 480 nm emission wavelengths. The relative fluorescence units (RFU) were calculated by subtracting background (substrate control well without protease) from the fluorescence readings. The dose-dependent FRET inhibition curves were fitted with variable slope (four parameters) using GraphPad Prism software (La Jolla, Calif.) in order to determine the compound concentration that gives a half-maximum response (IC50).
# HAV [16] = assay: Cell culture system, HAV replication in FRhK-4 cells (Example 3); type: cell-based, hepatitis A virus
# [17] = biological target: T1, MD145 3CLpro (codon-optimized, full-length, N-terminal 6 His, recombinant); assay: biochemical; parameters: species or system norovirus strain MD145
# [18] = biological target: HRV 3Cpro (recombinant, purchased from EMD chemicals) (Human rhinovirus 14, UniProt P03303); assay: biochemical
# Chain of HRV 3Cpro (recombinant, purchased from EMD chemicals) (P03303 1538-1719): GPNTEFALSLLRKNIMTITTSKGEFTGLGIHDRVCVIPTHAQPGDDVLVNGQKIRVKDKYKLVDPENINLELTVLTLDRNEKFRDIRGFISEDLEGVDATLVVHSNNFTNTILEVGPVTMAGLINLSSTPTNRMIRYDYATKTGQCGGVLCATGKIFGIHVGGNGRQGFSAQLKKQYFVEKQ
# [19] = biological target: NV 3CLpro (codon-optimized, full-length, N-terminal 6 His, recombinant) (Norovirus, UniProt Q83883); assay: biochemical; parameters: species or system norovirus strain Norwalk
# Chain of NV 3CLpro (codon-optimized, full-length, N-terminal 6 His, recombinant) (Q83883 1101-1281): as the sequence (Q83883 1101-1281) above
# [20] = biological target: PV 3Cpro (codon-optimized, N-terminal 6 His, recombinant) (Poliovirus type 1, UniProt P03300); assay: biochemical; parameters: species or system poliovirus (poliomyelitis virus)
# Chain of PV 3Cpro (codon-optimized, N-terminal 6 His, recombinant) (P03300 1566-1748 limits assumed): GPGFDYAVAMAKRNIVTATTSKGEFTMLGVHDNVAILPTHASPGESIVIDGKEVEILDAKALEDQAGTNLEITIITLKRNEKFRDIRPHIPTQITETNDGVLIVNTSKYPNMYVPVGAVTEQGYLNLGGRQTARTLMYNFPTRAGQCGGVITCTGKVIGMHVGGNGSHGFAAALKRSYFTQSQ
# [21] = oral 100 mg/kg once a day for 5 days
# [22] = Gn pigs, oral 25 mg/kg twice a day 10 days then approx. 12.5 mg/kg twice a day 5 days
# [23] = same regimen, detection limit 4.7 log10 GE/ml
smiles,measurement,setting,value
CC(C)C[C@H](NC(=O)OCc1ccccc1)C(=O)N[C@@H](CC1CCNC1=O)C(=O)C(=O)NC(C)C (some centres unmarked) [GC375],EC50,Teschovirus,0.2 µM
same,EC50,HAV [1],20 µM
same,inhibitory activity against Norwalk virus 3CL protease (in words),[2],devoid of inhibitory activity
same,EC50,FIPV,1.5 µM
same,EC50,EV71,15 µM
same,EC50,FCV [3],4.5 µM
same,"oral bioavailability, % F",[4],16 % F
same,antiviral effects against MNV-1: no effects at concentrations up to,MNV-1 [5],> 50 µM
same,EC50,MNV-1 [6],85 µM
same,IC50,[7],6.4 µM
same,antiviral effects against FCV: no effects at concentrations up to,FCV [8],> 50 µM
same,"effect on the activity of 3CLpro of NV, MD145, MNV-1 (in words)",[9],lower than those of GC373 and GC376
same,EC50,TGEV,0.2 µM
same,inhibitory effect on HAV 3Cpro (in words),HAV 3Cpro,weak but appreciable inhibitory effects
same,EC50,[10],3.2 µM
same,EC50,MHV,4.5 µM
same,IC50,[11],42.6 ± 2.61 µM
same,IC50,[12],4.03 µM
same,EC50,229E,0.15 µM
same,IC50,[13],4.66 ± 0.19 µM
CC(C)C[C@H](NC(=O)OCc1ccccc1)C(=O)N[C@@H](C[C@@H]1CCNC1=O)C(O)S(=O)(=O)[O-].[Na+] (some centres unmarked) [GC376],"Mean duration of virus shedding (SEM), Tx (+) at PIDs 1-5",[14]; [21],3.3 (0.3)
same,"Mean duration of virus shedding (SEM), Tx (−) at PIDs 6-14",[14]; [21],4.0 (2.0)
same,"Mean log10 viral titer/rectal swab (GE/ml) (SEM), Overall viral titer shed at PIDs 1-14",[14]; [21],5.17 (0.08)^B log10 GE/ml
same,"Mean log10 viral titer/rectal swab (GE/ml) (SEM), Tx (+) at PIDs 1-5",[14]; [21],"5.28 (0.13)^b,A log10 GE/ml"
same,"Mean log10 viral titer/rectal swab (GE/ml) (SEM), Tx (−) at PIDs 6-14",[14]; [21],5.11 (0.10)^B log10 GE/ml
same,fecal viral RNA titers after treatment was discontinued vs 30% DMSO vehicle pigs (in words),[14]; [21],significantly lower fecal viral RNA titers
same,Mean onset of virus shedding (PID) (SEM),[14]; oral 100 mg/kg once a day for 5 days from day 1 after inoculation,2.7 (0.3) PID
same,"oral bioavailability, % F",[4],4 % F
same,increase of IC50 at passage number 15,MNV-1 [15],up to 10 fold
same,"Mean duration of virus shedding, Tx (+) at PIDs 1-13",human norovirus (HuNoV); [22],7.5
same,Mean onset of virus shedding (PID),human norovirus (HuNoV); [22],2.3 PID
same,effect of oral treatment on virus shedding compared to untreated animals (in words),human norovirus (HuNoV); HuNoV-inoculated Gn pigs,significantly reduced the duration of virus shedding
same,Overall duration of virus shedding at PID1-27,human norovirus (HuNoV); same regimen,7.5
same,"Mean duration of virus shedding, Tx (−) at PIDs 14-27","human norovirus (HuNoV); same regimen, after treatment discontinued",0
same,"Mean log10 viral titer/rectal swab (GE/ml), Overall viral titer shed at PIDs 1-27",human norovirus (HuNoV); [23],4.86 log10 GE/ml
same,"Mean log10 viral titer/rectal swab (GE/ml), Tx (+) at PIDs 1-13",human norovirus (HuNoV); [23],4.98 log10 GE/ml
same,"Mean log10 viral titer/rectal swab (GE/ml), Tx (−) at PIDs 14-27",human norovirus (HuNoV); [23],<4.70 log10 GE/ml
same,"effect on the activity of 3CLpro of NV, MD145, MNV-1 (in words)",[9],highly effective
same,inhibition of the activity of TGEV 3CL protease (in words),TGEV 3CL protease,remarkably inhibited
same,effectiveness against the replication of HAV in cells (in words),HAV [16],no or weak effectiveness
"CCOC(=O)/C=C/[C@H](C[C@@H]1CCNC1=O)NC(=O)[C@@H](CC(=O)[C@@H](NC(=O)c1cc(C)on1)C(C)C)Cc1ccc(F)cc1 [Rupintrivir, reference compound]",IC50,[17],0.7 ± 0.19 µM
same,IC50,[18],0.34 ± 0.05 µM
same,IC50,[19],0.83 ± 0.19 µM
same,IC50,[20],1.83 ± 0.38 µM

# From US9474759B2 (priority 2011, dated 2016)
